Measured values: ChEMBL document CHEMBL1140417, “Total and semisynthesis and in vitro studies of both enantiomers of 20-fluorocamptothecin” (Bioorg Med Chem Lett, 2005)
Calls of active or inactive are those of the source. The calls are words filed in the database; no cut-off is given here.

Each molecule was assayed against T1, DNA topoisomerase 1 (Homo sapiens) (UniProt P11387) (assay: Inhibition of topoisomerase-1 at 100 uM).
T1 sequence (whole entry): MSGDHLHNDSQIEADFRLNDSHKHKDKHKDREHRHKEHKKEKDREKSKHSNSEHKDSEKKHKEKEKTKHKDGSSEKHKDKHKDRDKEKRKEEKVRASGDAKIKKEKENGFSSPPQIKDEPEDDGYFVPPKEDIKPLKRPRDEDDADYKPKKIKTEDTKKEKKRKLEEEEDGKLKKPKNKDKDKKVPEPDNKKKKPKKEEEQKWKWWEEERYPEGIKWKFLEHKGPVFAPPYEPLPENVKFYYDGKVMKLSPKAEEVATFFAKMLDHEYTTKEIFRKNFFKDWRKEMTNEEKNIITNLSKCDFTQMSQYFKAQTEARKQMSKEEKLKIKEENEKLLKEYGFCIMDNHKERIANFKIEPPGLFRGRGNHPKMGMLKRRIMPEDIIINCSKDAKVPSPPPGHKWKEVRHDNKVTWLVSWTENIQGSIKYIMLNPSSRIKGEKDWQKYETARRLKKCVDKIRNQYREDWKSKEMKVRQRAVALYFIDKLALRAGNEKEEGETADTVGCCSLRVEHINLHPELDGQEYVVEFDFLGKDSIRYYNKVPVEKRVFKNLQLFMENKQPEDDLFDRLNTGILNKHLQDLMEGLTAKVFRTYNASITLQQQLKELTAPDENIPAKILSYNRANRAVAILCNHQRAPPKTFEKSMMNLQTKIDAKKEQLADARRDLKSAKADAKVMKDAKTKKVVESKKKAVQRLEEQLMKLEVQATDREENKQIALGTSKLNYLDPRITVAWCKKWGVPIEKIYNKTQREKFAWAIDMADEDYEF

Activity | Compound
inactive | CC[C@]1(F)C(=O)OCc2c1cc1n(c2=O)Cc2cc3c4c(ccc3nc2-1)OCO4
inactive | CC[C@]1(F)C(=O)OCc2c1cc1n(c2=O)Cc2cc3cc(F)ccc3nc2-1
inactive | CC[C@]1(F)C(=O)OCc2c1cc1n(c2=O)Cc2cc3cc4c(cc3nc2-1)OCO4
inactive | CC[C@]1(F)C(=O)OCc2c1cc1n(c2=O)Cc2c-1nc1ccc(O)cc1c2[Si](C)(C)C(C)(C)C
Active | CC[C@@]1(F)C(=O)OCc2c1cc1n(c2=O)Cc2cc3ccccc3nc2-1
inactive | CC[C@]1(F)C(=O)OCc2c1cc1n(c2=O)Cc2cc3ccccc3nc2-1
